According to ChEMBL document CHEMBL1201862, “PubChem BioAssay data set” (2004):
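Step 1: Grow cells in 96-well plates. Step 2: Expose to compound for 48 hours at 5 concentrations. Step 3: Interpolate endpoints linearly; if unreached, use highest concentration. Abbreviation: GI50, concentration required for 50% inhibition of growth.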 Activity calls are given as the source filed them. Rule as the data show it: active = GI50 up to about 1.1 µM and inactive = higher.

Columns and labels:
Test in all cases: NCI-60 cell line screen, 48 h
LOX IMVI = system: LOX IMVI
EKVX = system: EKVX
SN12C = system: SN12C
SK-MEL-28 = system: SK-MEL-28
SK-OV-3 = system: SK-OV-3
ACHN = system: ACHN
MOLT-4 = system: MOLT-4
UO-31 = system: UO-31
HOP-62 = system: HOP-62
SF-295 = system: SF-295
Hs-578T = system: Hs-578T
A498 = system: A498
SNB-75 = system: SNB-75
786-0 = system: 786-0
SF-539 = system: SF-539
RXF 393 = system: RXF 393
HCC 2998 = system: HCC 2998
UACC-62 = system: UACC-62
SR = system: SR

Measured: GI50

CN1C(=O)C(O)CC1c1cccc(C(F)(F)F)c1 (configuration not stated)
inactive: LOX IMVI > 100 µM | EKVX > 100 µM | SN12C > 100 µM | SK-MEL-28 > 100 µM | SK-OV-3 > 100 µM | ACHN > 100 µM | MOLT-4 > 100 µM | UO-31 > 100 µM | HOP-62 > 100 µM | SF-295 > 100 µM | Hs-578T > 100 µM | A498 > 100 µM | SNB-75 > 100 µM | 786-0 > 100 µM | SF-539 > 100 µM | RXF 393 > 100 µM | HCC 2998 > 100 µM | UACC-62 > 100 µM

O=C(/C=C/c1ccc2c(c1)OCO2)c1ccccc(=O)c1O
inactive: LOX IMVI 19.9 µM | EKVX 20.7 µM | SR > 100 µM | SN12C 21.7 µM | SK-MEL-28 21.2 µM | ACHN 8.24 µM | MOLT-4 6.27 µM | UO-31 13.6 µM | HOP-62 20.9 µM | Hs-578T 7.8 µM | A498 29.9 µM | SNB-75 12.3 µM | 786-0 8.32 µM | UACC-62 7.73 µM

COC(CNC(=O)CNC(=O)c1ccc(C(F)(F)F)cc1)OC
inactive: EKVX > 100 µM | SR > 100 µM | SN12C > 100 µM | SK-OV-3 > 100 µM | ACHN > 100 µM | MOLT-4 > 100 µM | UO-31 > 100 µM | SF-295 > 100 µM | Hs-578T > 100 µM | SNB-75 > 100 µM | 786-0 > 100 µM | SF-539 > 100 µM | RXF 393 > 100 µM | UACC-62 > 100 µM

Cc1ccc([N+](=O)[O-])cc1S(=O)(=O)Nc1ccc(C2=NN(C(=O)c3ccccc3)C(c3ccccc3O)C2)cc1 (configuration not stated)
inactive: LOX IMVI 18.3 µM | EKVX 12.6 µM | SR 21.2 µM | SN12C 13.5 µM | SK-MEL-28 28.2 µM | SK-OV-3 19.1 µM | ACHN 15.7 µM | MOLT-4 13.6 µM | UO-31 16.6 µM | HOP-62 25.3 µM | SF-295 23.4 µM | Hs-578T 22.8 µM | A498 12.9 µM | SNB-75 17.1 µM | 786-0 14.4 µM | SF-539 17.3 µM | RXF 393 12.3 µM

COC(=O)[C@@H]1COC(=O)N1
inactive: LOX IMVI > 100 µM | EKVX > 100 µM | SN12C > 100 µM | SK-MEL-28 > 100 µM | SK-OV-3 > 100 µM | ACHN > 100 µM | MOLT-4 > 100 µM | UO-31 > 100 µM | HOP-62 > 100 µM | SF-295 > 100 µM | Hs-578T > 100 µM | A498 > 100 µM | SNB-75 > 100 µM | 786-0 > 100 µM | SF-539 > 100 µM | RXF 393 > 100 µM | HCC 2998 > 100 µM | UACC-62 > 100 µM

Nc1nc(Nc2ccc(Cl)cc2)sc1C(=O)c1cccs1
inactive: LOX IMVI > 100 µM | EKVX 20 µM | SR 2.4 µM | SN12C 21 µM | SK-MEL-28 > 100 µM | SK-OV-3 22.9 µM | ACHN 36.3 µM | MOLT-4 > 100 µM | UO-31 17 µM | HOP-62 25.6 µM | Hs-578T 15.2 µM | A498 19.1 µM | 786-0 11.8 µM | SF-539 21.6 µM | RXF 393 17.2 µM | UACC-62 > 100 µM

Cc1cc2occ(S(=O)(=O)NC(=O)Nc3ccc(Cl)cc3)c(=O)c2c(=O)o1
inactive: LOX IMVI > 100 µM | EKVX > 100 µM | SN12C > 100 µM | SK-MEL-28 > 100 µM | SK-OV-3 > 100 µM | ACHN 40.2 µM | MOLT-4 > 100 µM | UO-31 > 100 µM | HOP-62 > 100 µM | SF-295 > 100 µM | Hs-578T > 100 µM | A498 > 100 µM | SNB-75 > 100 µM | 786-0 > 100 µM | SF-539 > 100 µM | RXF 393 > 100 µM | HCC 2998 > 100 µM | UACC-62 23.4 µM

Cn1c(N/N=C/c2ccccc2)nc(-c2ccc3c(c2)OCO3)c(C#N)c1=O
inactive: LOX IMVI 55.6 µM | EKVX 70.6 µM | SR 25.5 µM | SN12C 65.2 µM | SK-MEL-28 > 100 µM | SK-OV-3 > 100 µM | ACHN 59.3 µM | MOLT-4 48.4 µM | UO-31 77.3 µM | HOP-62 > 100 µM | SF-295 84.9 µM | Hs-578T 48.5 µM | A498 95.9 µM | SNB-75 > 100 µM | 786-0 > 100 µM | SF-539 > 100 µM | RXF 393 81.8 µM | UACC-62 40.3 µM

COC1=NC(NC2OCC(O)C(O)C2O)=C(NC(C)=O)CN1C (configuration not stated)
inactive: LOX IMVI > 100 µM | EKVX > 100 µM | SK-MEL-28 > 100 µM | SK-OV-3 > 100 µM | ACHN > 100 µM | MOLT-4 > 100 µM | UO-31 > 100 µM | SF-295 > 100 µM | Hs-578T > 100 µM | A498 > 100 µM | SNB-75 > 100 µM | 786-0 > 100 µM | SF-539 > 100 µM | RXF 393 > 100 µM | HCC 2998 > 100 µM | UACC-62 > 100 µM

CCOC(=O)c1c(NC(=O)c2ccccc2)sc2c1CCC2
inactive: EKVX > 100 µM | SR > 100 µM | SN12C > 100 µM | ACHN > 100 µM | MOLT-4 > 100 µM | UO-31 > 100 µM | HOP-62 > 100 µM | SF-295 > 100 µM | Hs-578T > 100 µM | A498 > 100 µM | SNB-75 > 100 µM | 786-0 > 100 µM | SF-539 > 100 µM | RXF 393 > 100 µM | UACC-62 > 100 µM

Cc1cc(O)c(C(c2ccncc2)c2c(O)cc(C)[nH]c2=O)c(=O)[nH]1
inactive: LOX IMVI > 100 µM | EKVX > 100 µM | SR > 100 µM | SN12C > 100 µM | SK-MEL-28 > 100 µM | SK-OV-3 > 100 µM | ACHN > 100 µM | MOLT-4 > 100 µM | UO-31 > 100 µM | HOP-62 > 100 µM | SF-295 > 100 µM | Hs-578T > 100 µM | 786-0 > 100 µM | RXF 393 > 100 µM | UACC-62 > 100 µM

O=CC(O)C(O)C(O)C1CNC(=S)O1 (configuration not stated)
inactive: LOX IMVI > 100 µM | EKVX > 100 µM | SR > 100 µM | SN12C > 100 µM | SK-MEL-28 > 100 µM | SK-OV-3 > 100 µM | ACHN > 100 µM | MOLT-4 > 100 µM | UO-31 > 100 µM | HOP-62 > 100 µM | SF-295 > 100 µM | Hs-578T > 100 µM | A498 > 100 µM | SNB-75 > 100 µM | 786-0 > 100 µM | SF-539 > 100 µM | RXF 393 > 100 µM | UACC-62 > 100 µM

Cn1c(=O)c2c(nc(N3CCOCC3)n2CCCNCC(O)c2ccc(O)c(O)c2)n(C)c1=O (configuration not stated)
inactive: LOX IMVI > 100 µM | EKVX > 100 µM | SR 10 µM | SN12C 81.8 µM | SK-MEL-28 > 100 µM | SK-OV-3 > 100 µM | ACHN > 100 µM | MOLT-4 20.8 µM | UO-31 > 100 µM | HOP-62 > 100 µM | SF-295 > 100 µM | Hs-578T > 100 µM | A498 > 100 µM | SNB-75 > 100 µM | 786-0 > 100 µM | SF-539 > 100 µM | RXF 393 > 100 µM | UACC-62 > 100 µM

O[C@H]1[C@H](O)[C@@H](O)[C@@]2(O)CC[C@@H]1N2
inactive: LOX IMVI > 100 µM | EKVX > 100 µM | SN12C > 100 µM | SK-MEL-28 > 100 µM | SK-OV-3 > 100 µM | ACHN > 100 µM | MOLT-4 > 100 µM | UO-31 > 100 µM | HOP-62 > 100 µM | SF-295 > 100 µM | Hs-578T > 100 µM | A498 > 100 µM | SNB-75 > 100 µM | 786-0 > 100 µM | SF-539 > 100 µM | RXF 393 > 100 µM | HCC 2998 > 100 µM | UACC-62 > 100 µM

C1=CC2(C=CC13O[C@H](C1CCCCC1)[C@@H](C1CCCCC1)O3)O[C@H](C1CCCCC1)[C@@H](C1CCCCC1)O2
inactive: LOX IMVI > 50 µM | SR > 50 µM | SN12C > 50 µM | SK-MEL-28 > 50 µM | SK-OV-3 > 50 µM | ACHN > 50 µM | MOLT-4 > 50 µM | UO-31 > 50 µM | HOP-62 > 50 µM | SF-295 > 50 µM | Hs-578T > 50 µM | A498 > 50 µM | SNB-75 > 50 µM | 786-0 > 50 µM | SF-539 > 50 µM | RXF 393 > 50 µM | UACC-62 > 50 µM

COc1cc(S(=O)(=O)Nc2nc(-c3ccc(N4C(=O)/C(=C\c5cccs5)N=C4c4ccccc4)cc3)cs2)ccc1Cl
inactive: LOX IMVI 32.1 µM | SR 39.5 µM | SN12C 58.5 µM | SK-MEL-28 71.6 µM | SK-OV-3 > 100 µM | ACHN > 100 µM | MOLT-4 43.9 µM | UO-31 > 100 µM | HOP-62 > 100 µM | SF-295 > 100 µM | Hs-578T 24 µM | A498 > 100 µM | SNB-75 51.4 µM | 786-0 > 100 µM | SF-539 49.9 µM | RXF 393 32.1 µM | UACC-62 25.3 µM
